Laboratory results: ChEMBL document CHEMBL1201862, “PubChem BioAssay data set” (2004)
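These data come from cells grown in 96-well plates and exposed to compound for 48 hours at five concentrations. Abbreviation: GI50, concentration required for 50% inhibition of growth.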 The source made the active and inactive calls. Rule as the data show it: active = GI50 up to about 1.1 µM and inactive = higher.

Experiments:
Experiment in all cases: NCI tumour cell line growth inhibition, 48 h
COLO 205 = tested on: COLO 205
HCC 2998 = tested on: HCC 2998
HCT-15 = tested on: HCT-15
HL-60 = tested on: HL-60
HOP-62 = tested on: HOP-62
KM12 = tested on: KM12
M14 = tested on: M14
NCI-H23 = tested on: NCI-H23
NCI-H460 = tested on: NCI-H460
OVCAR-3 = tested on: OVCAR-3
OVCAR-4 = tested on: OVCAR-4
RPMI-8226 = tested on: RPMI-8226
RXF 393 = tested on: RXF 393
SF-268 = tested on: SF-268
SK-MEL-28 = tested on: SK-MEL-28
SK-MEL-2 = tested on: SK-MEL-2
SNB-19 = tested on: SNB-19
SNB-75 = tested on: SNB-75
SW-620 = tested on: SW-620
UACC-62 = tested on: UACC-62

SMILES	GI50 (COLO 205)	GI50 (HCC 2998)	GI50 (HCT-15)	GI50 (HL-60)	GI50 (HOP-62)	GI50 (KM12)	GI50 (M14)	GI50 (NCI-H23)	GI50 (NCI-H460)	GI50 (OVCAR-3)	GI50 (OVCAR-4)	GI50 (RPMI-8226)	GI50 (RXF 393)	GI50 (SF-268)	GI50 (SK-MEL-28)	GI50 (SK-MEL-2)	GI50 (SNB-19)	GI50 (SNB-75)	GI50 (SW-620)	GI50 (UACC-62)
COc1ccccc1C1CC(=O)CC(c2ccccc2OC)C12C(=O)NC(=S)NC2=O (configuration not stated)	32.6 µM (inactive)	62.7 µM (inactive)	42.5 µM	9.93 µM (inactive)	> 100 µM (inactive)	62.8 µM (inactive)	88.3 µM (inactive)	> 100 µM (inactive)	54.5 µM (inactive)	80.2 µM (inactive)	99.8 µM (inactive)	19.9 µM (inactive)	59.4 µM (inactive)	> 100 µM (inactive)	32.4 µM (inactive)	73.8 µM (inactive)	> 100 µM (inactive)	56 µM (inactive)	48.5 µM (inactive)	> 100 µM (inactive)
CCCCCC1CC=CC(NC(=O)OCc2ccccc2)C1/C=C/CCCC1OCCO1 (configuration not stated)	44.2 µM (inactive)	78.3 µM (inactive)	86.7 µM	7.93 µM (inactive)	> 100 µM (inactive)	48 µM (inactive)	> 100 µM (inactive)	44.7 µM (inactive)	51.6 µM (inactive)	38.5 µM (inactive)	> 72.9 µM (inactive)	17.9 µM (inactive)	15.1 µM (inactive)	> 42.8 µM (inactive)	> 36.5 µM (inactive)	35.2 µM (inactive)	74.1 µM (inactive)	> 56 µM (inactive)	> 100 µM (inactive)	> 93.5 µM (inactive)
COc1cc2c(c(OC)c1OC)-c1ccc(SC)c(=O)cc1C(CO)C2 (configuration not stated)	0.166 µM (active)	0.185 µM (active)	0.227 µM	0.0682 µM (active)	0.233 µM (active)	0.0813 µM (active)	0.103 µM (active)	0.307 µM (active)	0.184 µM (active)	0.164 µM (active)	0.769 µM (active)	< 0.01 µM (active)	0.104 µM (active)	0.146 µM (active)	0.0735 µM (active)	0.209 µM (active)	0.802 µM (active)	0.0326 µM (active)	0.167 µM (active)	0.0414 µM (active)
CC1(C)C=[N+]([O-])C(C)(C)N1	> 100 µM (inactive)	> 100 µM (inactive)	> 100 µM	> 100 µM (inactive)	> 100 µM (inactive)	> 100 µM (inactive)	> 100 µM (inactive)	> 100 µM (inactive)	> 100 µM (inactive)	> 100 µM (inactive)	> 100 µM (inactive)	> 100 µM (inactive)	> 100 µM (inactive)	> 100 µM (inactive)	> 100 µM (inactive)	> 100 µM (inactive)	> 100 µM (inactive)	> 100 µM (inactive)	> 100 µM (inactive)	> 100 µM (inactive)
CCOC(=O)CC[C@@H](NC(=O)c1ccc(NCc2ccc3nc(OC)c(OC)nc3c2)cc1)C(=O)OCC	28.6 µM (inactive)	33.6 µM (inactive)	> 87.3 µM	14.8 µM (inactive)	> 77.4 µM (inactive)	> 100 µM (inactive)	16.3 µM (inactive)	> 83.2 µM (inactive)	20.6 µM (inactive)	17.3 µM (inactive)	38.9 µM (inactive)	> 94.8 µM (inactive)	25.5 µM (inactive)	33.4 µM (inactive)	16.1 µM (inactive)	18.1 µM (inactive)	> 100 µM (inactive)	14.5 µM (inactive)	80.7 µM (inactive)	15.5 µM (inactive)
O=C(Nc1nnc(-c2ccc(Cl)cc2)o1)C(SC(=S)N1CCCCC1)c1ccccc1 (configuration not stated)	24.4 µM (inactive)	21.4 µM (inactive)	7.16 µM	8.59 µM (inactive)	25.9 µM (inactive)	24.8 µM (inactive)	13.2 µM (inactive)	21.9 µM (inactive)	7.6 µM (inactive)	19.3 µM (inactive)	22 µM (inactive)	11.2 µM (inactive)	24.8 µM (inactive)	6.5 µM (inactive)	18.1 µM (inactive)	15.7 µM (inactive)	20.5 µM (inactive)	39.1 µM (inactive)	33.3 µM (inactive)	14.2 µM (inactive)
COCn1c2ccc(OC(C)=O)cc2c2c(=O)oc(C)nc21	> 100 µM (inactive)	> 100 µM (inactive)	> 100 µM	> 100 µM (inactive)	> 100 µM (inactive)	> 100 µM (inactive)	> 100 µM (inactive)	> 100 µM (inactive)	> 100 µM (inactive)		> 100 µM (inactive)	> 100 µM (inactive)	> 100 µM (inactive)	> 100 µM (inactive)	> 100 µM (inactive)	> 100 µM (inactive)	> 100 µM (inactive)	> 100 µM (inactive)	> 100 µM (inactive)	> 100 µM (inactive)
CC1CNC(c2ccc(COc3ccc(C4=NC(C)CN4)cc3)cc2)=N1 (configuration not stated)	> 100 µM (inactive)	46.5 µM (inactive)	> 100 µM	> 100 µM (inactive)	32.8 µM (inactive)	27.4 µM (inactive)	60.1 µM (inactive)	53.3 µM (inactive)	23.4 µM (inactive)	34.9 µM (inactive)	> 100 µM (inactive)	29.9 µM (inactive)	58.6 µM (inactive)	54.3 µM (inactive)	41.8 µM (inactive)	18.6 µM (inactive)	50.1 µM (inactive)	13.2 µM (inactive)	67.9 µM (inactive)	26.2 µM (inactive)
O=c1cnc2cc3ccccc3cc2[nH]1	> 100 µM (inactive)	> 100 µM (inactive)	> 100 µM	> 100 µM (inactive)	> 100 µM (inactive)	> 100 µM (inactive)	> 100 µM (inactive)	> 100 µM (inactive)	> 100 µM (inactive)	> 100 µM (inactive)	> 100 µM (inactive)	> 100 µM (inactive)	> 100 µM (inactive)	> 100 µM (inactive)	> 100 µM (inactive)	> 100 µM (inactive)	71.6 µM (inactive)	37.8 µM (inactive)	> 100 µM (inactive)	
CNC1C(=O)C(C)C(O)(C(CC(C)C(O)/C=C/C=C/CNC(=O)C(C)(C)C(O)\C(C)=C/C=C\C=C\Cc2cnc(C)o2)OC)C12C(=O)OC2C.CNC1C(=O)C(C)C(O)(C(CC(C)C(O)/C=C/C=C/CNC(=O)C(C)(C)C(O)\C(C)=C/C=C\C=C\Cc2cnc(C)o2)OC)C12C(=O)OC2COC (configuration not stated)	0.778 µM (active)	13.3 µM (inactive)	21 µM	0.635 µM (active)	8.43 µM (inactive)	7.01 µM (inactive)	7.46 µM (inactive)	0.218 µM (active)	15.2 µM (inactive)	1.56 µM (inactive)	0.345 µM (active)	0.711 µM (active)	17.3 µM (inactive)	5.68 µM (inactive)	23.1 µM (inactive)	5.94 µM (inactive)	19.9 µM (inactive)	0.942 µM (active)	8.65 µM (inactive)	13.3 µM (inactive)
C=C1CCC(CC[C@@H]2CC[C@]3(OC2)O[C@@]2(O)CC[C@]3(C)OC2(C)C)C(C)(C)[C@H]1C/C=C1/C(=O)OC[C@@H]1O (some centres not stated)	5.43 µM (inactive)	4.16 µM (inactive)	1.22 µM	0.685 µM (active)	6.1 µM (inactive)	2.34 µM (inactive)	2.48 µM (inactive)	0.445 µM (active)	3.04 µM (inactive)	2.57 µM (inactive)	0.263 µM (active)	1.62 µM (inactive)	2.19 µM (inactive)	3.01 µM (inactive)	1.59 µM (inactive)	0.524 µM (active)	2.89 µM (inactive)	7.29 µM (inactive)	3.33 µM (inactive)	1.34 µM (inactive)
CCOC(OC1=C(C#N)CCC1)C(CC)[Se]c1ccccc1 (configuration not stated)	19.5 µM (inactive)	13.6 µM (inactive)	25.6 µM	12.4 µM (inactive)	> 100 µM (inactive)	64.4 µM (inactive)	15.2 µM (inactive)	9.98 µM (inactive)	36.4 µM (inactive)	22.1 µM (inactive)	16.1 µM (inactive)	17.9 µM (inactive)	20.9 µM (inactive)	18.8 µM (inactive)	40.9 µM (inactive)	20.9 µM (inactive)	48.1 µM (inactive)	24.2 µM (inactive)		19 µM (inactive)
O=CC(O)C(O)C(O)COc1cc(CO)cc2c1C(=O)c1ccccc1C2=O (configuration not stated)	> 100 µM (inactive)	> 100 µM (inactive)	> 100 µM	> 100 µM (inactive)	> 100 µM (inactive)	> 100 µM (inactive)	> 100 µM (inactive)	> 100 µM (inactive)	> 87.3 µM (inactive)	76.4 µM (inactive)	> 94.2 µM (inactive)	> 100 µM (inactive)	> 100 µM (inactive)	> 100 µM (inactive)	> 100 µM (inactive)	> 95.5 µM (inactive)	> 100 µM (inactive)	> 100 µM (inactive)	> 100 µM (inactive)	> 95.1 µM (inactive)
Clc1ccc(CCN(CCc2ccc(Cl)c(Cl)c2)CCN2CCCC2)cc1Cl	1.89 µM (inactive)	1.68 µM (inactive)	1.79 µM	1.39 µM (inactive)	1.67 µM (inactive)	1.67 µM (inactive)	1.67 µM (inactive)	1.82 µM (inactive)	1.86 µM (inactive)	1.73 µM (inactive)	1.85 µM (inactive)	2.16 µM (inactive)	1.72 µM (inactive)	1.73 µM (inactive)	1.77 µM (inactive)	1.67 µM (inactive)	1.82 µM (inactive)	2.23 µM (inactive)	1.72 µM (inactive)	1.63 µM (inactive)
